Experimental data: patent publication US6870044B2, “Inflammation inducible hybrid promoters, vectors comprising them and uses thereof” (Universite Pierre et Marie Curie, priority 2000, dated 2005)
Several values for one entry are separate records, joined by “and”; a condition that tells them apart may be missing. Identical values can stand only once.

Legend:
[1] = form not soluble in water, dose 5 to 50 mg/kg, for example 30 mg/kg; cited from earlier work
[2] = system: construct (DR)2 21-(−247/+20) sPLA2-CAT; experiment: CAT reporter, hybrid promoter (DR1)2 21-(−247/+20) sPLA2-CAT in transfected chondrocytes; format: cell-based, rabbit; conditions: for induction of the hybrid promoter, single inducer: PGJ2 10 μM, IL-1 10 ng/ml; for activation of the construct (DR1)2 21-(−247/+20)-CAT: 10^−4 M
Method: (§1) The hind and forelegs of 3-week-old prepubescent rabbits (Fauve de Bourgogne) were dissected and chopped up under sterile conditions. The cartilage is removed with a scalpel and then the chondrocytes are dissociated by means of proteolytic enzymes: hyaluronidase 0.05% for 15 minutes, trypsine 0.25% for 30 minutes and collagenase 0.2% for 90 minutes. Finally, the HAM's F12 medium is added for 60 minutes. The suspension of chondrocytes is cultured in dishes 6 cm in diameter (150,000 cells per dish) in the presence of HAM's F12 medium containing 10% fetal calf serum.
(§2) When these cells reach preconfluence (6 to 7 days), they are transfected with the various constructs using the calcium phosphate method.
(§3) The CAT activity is measured according to the double liquid phase technique according to Desbois et al. (1992). The β-galactosidase activity is measured with the aim of normalizing the variations in the transfection efficiency.
(§4) The fragment −247/+20 of the promoter of sPLA2 IIA (SEQ ID NO:5) was subcloned upstream of the CAT reporter vector for the plasmid PUC-SH-CAT. Upstream of this promoter, the different PPRE sequences cited above (SEQ ID NO: 1-4) were inserted.
(§5) The rabbit chondrocytes were then transfected with the CAT constructs containing the different arrangements of PPRE (DR1) placed upstream of the minimal promoter of sPLA2-IIA. 15 deoxy Δ^12-14 PGJ2 (10 μM) (activator of PPARγ) or Wy-14643 (200 μM) (activator of PPARα) were then added to the culture medium for 24 hours.
(§6) Rabbit chondrocytes were then transfected, either with the minimal promoter of sPLA2-IIA, or with the sequence (DR1)2 21 placed upstream of the latter (hybrid promoter). PGJ2 (10 μM) and/or IL-1 (10 ng/ml) are added to the culture medium.

[3] = system: minimal promoter (−247/+20) of sPLA2-IIA; experiment: CAT reporter, minimal promoter (−247/+20) of sPLA2-IIA in transfected chondrocytes; format: cell-based, rabbit; conditions: for activation of the minimal promoter (−247/+20) of sPLA2-IIA: PGJ2 10 μM or Wy-14643 200 μM, 24 hours
Method: as §1, §2, §3, §4, §5, §6

[4] = system: PPARγ and RXR proteins prepared in Cos-1 cells; experiment: Gel retardation, cooperative binding of PPARγ/RXR to radiolabeled PPRE sequences; conditions: for cooperativity ratio KdII/KdIV (R): PPARγ/RXR ratio 3:1, Cos-1 extracts 1 μl to 10 μl, Phosphorimager quantification
Method: (§7) The Cos-1 cells (transformed monkey kidney fibroblasts) are transfected according to the abovementioned calcium phosphate technique using 20 μg of vectors for expression of PPARγ, PPARα or RXR. Non-transfected Cos-1 cells will serve as control. 48 hours after the transfection, the cells are incubated with a buffer containing KCl (0.45 M), Tris-HCl (20 mM, pH=7.5) and 10% glycerol. They are detached by scraping and then disrupted by cooling to −80° C. and thawing at 37° C. These cells are then centrifuged at 15,000 rpm, for 10 minutes at 4° C. The supernatant is then frozen at −80° C. and used for the gel retardation experiments.
(§8) The sequences DR1, (DR1)2 17, (DR1)2 21, and (DR1)2 31 are radiolabeled by means of the Klenow fragment of DNA polymerase using [α-^32P]dCTP. One hundred thousand cpm (0.4 ng) of the radiolabeled probes are incubated, for 30 minutes at 4° C., with increasing quantities of Cos-1 extracts enriched with PPAR and RXR (as indicated in the legend to the figures) and with a specific binding buffer (KCl 100 mM, Hepes 40 mM, pH 7.5, NP40 0.1%, ZnCl2 0.5 mM, PEG 8%). The mixture is then deposited on an acrylamide/bisacrylamide gel (5%, TBE 0.25×) and run for 2 hours 30 min at 200 volts. The gel is then dried and autoradiographed.
In order to verify the functional nature and the efficiency of the above PPRE regions, gel retardation experiments were carried out consisting in studying the binding between one of the four sequences above, radiolabeled beforehand, in the presence of increasing quantities (5 and 10 μl) of PPARγ and RXR proteins prepared in Cos-1 cells (PPARγ/RXR ratio=3:1).
With the aim of studying the cooperativity of the binding of PPAR/RXR to these different sequences, gel retardation experiments placing increasing quantities of Cos-1 extracts enriched with PPAR and RXR (1 μl to 10 μl), followed by quantification of the radioactivity obtained, were carried out. The formation of the first PPAR/RXR dimer is characterized by the dissociation constant KdII, that of the double dimer, or tetramer, is characterized by the dissociation constant KdIV. The KdII/KdIV ratio (R) is the reflection of the cooperativity of the binding if it is greater than 1.
The various dimeric and tetrameric complexes and the free probe were quantified by means of a Phosphorimager and represented in FIG. 3. The cooperativity ratios were calculated by means of the abovementioned formula. The sequences (DR1)2 17 and (DR1)2 31 bind as many dimeric and tetrameric forms. The cooperativity ratios are 9 and 12.6 respectively. […] The dimeric form forms only 20% of the total binding, whereas the tetrameric form forms 80% of the total binding. The cooperativity ratio is 34 +/−11.

[5] = system: PPARα/RXR heterodimer (Cos-1 extracts enriched with PPARα and RXR); experiment: Gel retardation, cooperative binding of PPARα/RXR to radiolabeled PPRE sequences; conditions: PPARα/RXR 3/1, bands counted on a beta scintillation counter
Method: as §7, §8
With the aim of studying the cooperativity of the binding of PPAR/RXR to these different sequences, gel retardation experiments placing increasing quantities of Cos-1 extracts enriched with PPAR and RXR (1 μl to 10 μl), followed by quantification of the radioactivity obtained, were carried out. […]
Similar experiments were carried out with PPARα. […] Gel retardation experiments using the four radiolabeled sequences and increasing quantities of Cos-1 extracts enriched with PPARα and RXR (rapport3/1) were carried out. The bands corresponding to the dimeric (D) or tetrameric (T) forms or the free probe (P) were cut out of the gel and then quantified by counting on a beta scintillation counter (FIG. 4). […]

[6] = system: RSV (Rous Sarcoma Virus) promoter (comparator); experiment: Transcriptional activity of the synthetic promoter compared with the RSV viral promoter; format: cell-based
From the text: Finally, the levels of transcriptional activities reached by a viral promoter, such as the RSV (Rous Sarcoma Virus) promoter, and that of the synthetic promoter were compared. The basal transcriptional activity of the synthetic promoter is low, it is less than 5% of the activity of the RSV viral promoter.

CN(CCOc1ccc(CC2SC(=O)NC2=O)cc1)c1ccccn1 (centres unmarked) [BRL 49653, rosiglitazone]
plasma concentration [1]: about 15 μg/ml

C[C@@H]1C[C@H]2[C@@H]3CCC4=CC(=O)C=C[C@]4(C)[C@@]3(F)[C@@H](O)C[C@]2(C)[C@@]1(O)C(=O)CO [Dexamethasone, dexamethasone]
activation of transcription of the synthetic promoter ([2]; dexamethasone alone, concentration not given): about 6 fold

CCCCC/C=C/C=C1/C(=O)C=C[C@@H]1C/C=C\CCCC(=O)O [PGJ2, 15 deoxy Δ^12-14 PGJ2]
induction of the hybrid promoter, single inducer [2]: 4 fold | activation of the minimal promoter (−247/+20) of sPLA2-IIA [3]: not activated | activation of the minimal promoter (−247/+20) of sPLA2-IIA ([3]; listed as prostaglandin J2): no effect

Cc1cccc(Nc2cc(Cl)nc(SCC(=O)O)n2)c1C [Wy-14643, pirinixic acid]
activation of transcription of the hybrid construct ([2]; Wy-14643 200 μM): 3 to 4 fold | activation of the minimal promoter (−247/+20) of sPLA2-IIA [3]: no effect | activation of the minimal promoter (−247/+20) of sPLA2-IIA ([3]; listed as Wy 14643): not activated

CC(C)Cc1ccc(C(C)C(=O)O)cc1 (centres unmarked) [ibuprofen]
activation of the construct (DR1)2 21-(−247/+20)-CAT [2]: 17 fold

COc1ccc2c(c1)c(CC(=O)O)c(C)n2C(=O)c1ccc(Cl)cc1 [indomethacin]
activation of the construct (DR1)2 21-(−247/+20)-CAT [2]: about fivefold

(DR1)2 17: two DR1s separated center to center by 17 base pairs (DNA CAAAACTAGGTCAAAGGTCAAAACTAGGTCAAAGGTCA; radiolabeled by Klenow fill-in with 32P-dCTP, further chemistry not given here)
cooperativity ratio KdII/KdIV (R) [4]: 9 | cooperativity ratio (R) [5]: 7

(DR1)2 21: two DR1s separated center to center by 21 base pairs (DNA CAAAACTAGGTCAAAGGTCATCAAAACTAGGTCAAAGGTCA; radiolabeled by Klenow fill-in with 32P-dCTP, further chemistry not given here)
dimeric form, share of total binding ([4]; PPARγ/RXR): 20% | tetrameric form, share of total binding ([4]; PPARγ/RXR): 80% | cooperativity ratio KdII/KdIV (R) [4]: 34 +/−11 | cooperativity ratio (R) [5]: 11.2 and 11

(DR1)2 31: two DR1s separated center to center by 31 base pairs (DNA CAAAACTAGGTCAAAGGTCATGTCTTTAGGCCCAAAACTAGGTCAAAGGTCA; radiolabeled by Klenow fill-in with 32P-dCTP, further chemistry not given here)
cooperativity ratio KdII/KdIV (R) [4]: 12.6 | cooperativity ratio (R) [5]: 11.6 and 11

IL-1: pro-inflammatory cytokine interleukin-1
induction of the hybrid promoter, single inducer [2]: 4 fold | stimulation of the activity of the CAT reporter gene ([3]; 247 bp fragment upstream of first exon of human PLA2s IIA gene, rabbit chondrocytes in primary culture): 6 to 8 times | induction of the promoter of sPLA2-IIA ([3]; IL-1 10 ng/ml in culture medium): 6 fold

B1: synthetic promoter: PPAR response element (DR1)2 21 linked to fragment −247/+20 of the PLA2s IIA gene (nucleic acid)
DNA: GTACCAATTCGACAAAACTAGGTCAAAGGTCATCAAAACTAGGTCAAAGGTCAAATTCGAACGCGGCAAAACTGCCTGAAATGTGTTTTGGCATCAGCTACTGACACGTAAGGTTTCCCAATCCTCAACTCTGTCCTGCCAGCTGATGAGGGGAAGGAAAGGGATTACCTAGGGGTATGGGCGACCAATCCTGAGTCCACCAACTGACCACGCCCATCCCCAGCCTTGTGCCTCACCTACCCCCAACCTCCCAGAGGGAGCAGCTATTTAAGGGGAGCAGGAGTGCAGAACAAACAAGACGGCCTGGGGATACAACTCTGGAGTCCTCTGAG
modifications: PPRE/PLA2s hybrid promoter
notes: PPAR response element (DR1)2 21 linked to fragment −247/+20 of the PLA2s IIA gene
transcriptional activity relative to RSV after induction ([6]; after induction with the different effectors (results not shown)): 40% | basal transcriptional activity, relative to the RSV viral promoter ([6]; not induced): less than 5%
